Measurements as given in patent publication US7183257B2, “Use of RPL41 to treat infections and inhibit cancer” (priority 2004, dated 2007).
Peptide text beside a SMILES is read from it. * marks the point of attachment. Cbz = O=C(OCc1ccccc1)*; CH2F = FC*

Assays:
[1] = tested on: five tumor cell lines (HTB72, CRL1435, CRL5800, HCT116, MCF7); assay: Caspase inhibitor z-VAD.fmk with RPL41 (morphology and Δψm assays); assay type: cell-based; details: Z-VAD.fmk 50 μM with RPL41 6.7 μM, 8 hours
Procedure: FIG. 10—RPL41 induced cell death is caspase independent. […].
. The cell death induced by RPL41, therefore, is likely to be caspase-independent. A broad-spectrum caspase inhibitor z-VAD.fmk was also incubated with five tumor cell lines, in the presence of RPL41, to determine whether the inhibition of caspases will attenuate RPL41 induced cell death. […]

[2] = Isoelectric point of peptide; assay type: physicochemical
[3] = tested on: 24 tumor cell lines of various tissue types (ATCC); assay type: cell-based

Compound: COC(=O)C[C@H](NC(=O)[C@H](C)NC(=O)[C@@H](NC(=O)OCc1ccccc1)C(C)C)C(=O)CF [z-VAD.fmk] (Cbz-Val-Ala-Asp(OMe)-CH2F)
- suppression of RPL41 induced cell death [1]: failed to suppress the RPL41 induced cell death

Compound: MLISSGLKDGIRSGI [control peptide unrelated to RPL41]
- pI [2]: 8.5
- effect on tumor cell growth ([3]; concentration ten times higher than that of RPL41): no effect on tumor cell growth

Compound: NH2-KARMRMKRKLRKRMRKRQRSRKWKR-OH (H-KARMRMKRKLRKRMRKRQRSRKWKR-OH)
- inhibition effect on tumor cell growth after pre-treatment of peptide with proteases ([3]; peptides pre-treated with proteases (DIGEST-ALL, Zymed)): completely abolished
